We go through 1 substance from patent publication US10874635B2, “Tocotrienol compositions” (First Tech International Limited, priority 2011, dated 2020).

One may read the viscosity as the resistance of a fluid to flow. Read a low viscosity as a thin fluid.

This series in a line: Viscosity measurement of vitamin E, MCT and binary blends. The conditions noted are these: 23 °C. The class given is physicochemical. The protocol: Viscosity of vitamin E, MCT, and their binary mixtures was measured using an advanced rheometer from TA Instruments Ltd, New Castle, Del. model number AR 2000. A cone and plate geometry was used with a steel plate radius of 40 mm and a cone angle of 2°. The gap between the cone and plate geometry was set at 100 μm. Rheological measurements were made at 23° C. The rheometer was fitted with a Peltier temperature control system, which was monitored during the experiments. For each test, approximately 1 g of vitamin E, MCT, or their binary mixtures was placed between the plates. Preliminary studies were conducted to optimize instrument parameters. Once the system was optimized, a continuous ramp method was used. The shear stress was measured at varying shear rates from 1 to 100 s−1 for a period of 5 minutes. All rheological measurements were carried out in triplicates. Data were analyzed using rheology software namely TA Rheology Advantage software, Version 2.3.
The viscosity of the blends decreased from a high of 3700 mPa·s for vitamin E alone to a low of 27 mPa·s, which is the viscosity of pure MCT. […] Therefore, two levels of vitamin E loading in the emulsion were evaluated in this study representing a high viscosity system at a 70/30 ratio and a low viscosity system at a 30/70 ratio of vitamin E to MCT. […]

(±)-α-Tocopherol [vitamin E] displayed a viscosity of 3700 mPa·s.
